Source: article PMC11747586, “Synthesis and Investigation of Peptide–Drug Conjugates Comprising Camptothecin and a Human Protein‐Derived Cell‐Penetrating Peptide” (Chemical Biology & Drug Design, 2025)
Positions of bridges follow the written chain, without caps; N, C: chain ends. Residues, ends and D or L forms follow the SMILES beside them.

Key:
[1] = Parallel artificial membrane permeability assay (PAMPA); assay type: in vitro ADME; conditions: PAMPA
Description: FIGURE 4 (A) Membrane permeability and cellular uptake of PDCs, scaffold peptides, and CPT. Compounds were added to PAMPA wells (4 μM) and incubated for 4 h. Supernatant from apical and basolateral sides of the membrane were collected and analyzed using LC–MS. The amount in the combined soluble fractions was compared to the starting amount to determine % recovery, and the apparent permeability (Papp) was calculated as before (Sevin et al. [2013]). Data is expressed as mean ± SD from a single experiment with three technical replicates. (B) Internalization/cell membrane association of PDCs 12–14 and PDIP with HT144 cells. Cells were treated with PDIP or PDCs (4 μM) for 1 h, washed to remove extracellular compound, then extracted with 75% (v/v) MeCN in mQH2O (containing 1.75% (v/v) TFA), to recover soluble peptide or PDC from precipitated cell proteins. The relative amount of internalized peptide or PDC was determined by integrating area under the curve (AUC) for the [M + 6H]^6+ m/z peak (for the intact mass) using time of flight–mass spectrometry (see Figure S2). […] Data is expressed as mean ± SD from a single experiment with three technical replicates for each treatment and control and was analyzed with ANOVA (Tukey multiple comparisons; **p < 0.01, *p < 0.05). (C) Detection of intracellular CPT following 6 h treatment of HT144 cells with CPT and PDCs 12 and 14. […] Data is expressed as mean ± SD from a single experiment with three technical replicates for each treatment and was analyzed with ANOVA (Fisher multiple paired comparisons; **p < 0.01, *p < 0.05). TEXT PRINTED IN THE PICTURE: (A) PDIP: % recovered (soluble fractions): 94 | (A) 12: % recovered (soluble fractions): 58 | (A) 14: % recovered (soluble fractions): 33 | (A) 15: % recovered (soluble fractions): 40 | (A) c[A] PDIP: % recovered (soluble fractions): 34 | (A) CPT: % recovered (soluble fractions): 92 […]
For the first assay, the PDCs (12–15), scaffold peptides and CPT (4 μM) were added to the apical side of PAMPA monolayers and incubated for 4 h. […] PDIP, CPT, and PDCs 12 and 14 had high permeability (Papp ≥ 2 × 10^−6 cm/s), highlighting that these PDCs maintain membrane permeability with the CPT cargo attached. […] Reliable permeability data were not obtained for PDC 13 because of poor recovery of the PDC from soluble fractions, and degradation during the 4 h PAMPA experiment. […] Instability of the carbonate linkage within CPT conjugates containing a dipeptide linker has been previously reported (Walker et al. [2002]), highlighting the potential incompatibility of this drug–linker combination for CPT PDCs. Considering the observed degradation of 13 in the cell‐free assay, it is also possible that extracellular degradation occurred during the cytotoxicity assays.
Parallel artificial membrane permeability assay (PAMPA)
PAMPA was performed according to the manufacturer instructions for the BD Gentest pre-coated PAMPA plate system (BD Biosciences), as previously described.16 Briefly, peptides and PDCs (4 μM in PBS) were added to the apical side of PAMPA wells and incubated for 4 h at 37 °C, 5% CO2 with 95% humidity. Soluble fractions were recovered from the apical and basolateral sides, and compound concentration was quantified using a Shimadzu LCMS-2020 instrument with a Phenomenex 5 µm C18 / 300 Å / 150 x 2 mm LC column. Data was collected from three technical replicates for each compound. The % recovery was determined from (combined from apical and basolateral fractions) relative to the starting concentration:
Recovery rate : R (%) = (C஺ ×V஺ +C஻ ×V஻ )× 100 where CA and CB are the apical and basolateral concentrations (µM), VA and VB are the apical and basolateral volumes (mL), and C0 is the initial concentration (µM).
The apparent permeability coefficient (Papp) was calculated using the following equations17 and where A is the membrane surface area (cm2): […]

[2] = tested on: HaCaT (noncancerous) cells; experiment: Cytotoxicity (resazurin) against cultured HaCaT noncancerous cells; conditions: read-out: CC50 HaCaT; 72 h incubation, resazurin; mean (SEM)
Description: (§1) Cell death was measured using resazurin, with 0.1% (v/v) Triton X‐100 as a control for 100% cell death. Data points are expressed as mean ± SD for at least two biological replicates. Dose response curves were fitted using [inhibitor] versus response with variable slope, Graphpad Prism v10. […] RBC lysis was determined by measuring released hemoglobin, with 0.1% (v/v) Triton X‐100 as a control for 100% cell lysis. Melittin was included as a membranolytic control. Data points are expressed as mean ± SD for two technical replicates. Dose response curves were fitted using [inhibitor] versus response with variable slope, Graphpad Prism v10. […] CC50 values are expressed as mean (SEM). […]
(§2) HaCaT cells were grown in DMEM medium and HT144 cells were grown in RPMI medium supplemented with 2 mM L-glutamine and 10 mM sodium pyruvate. Media were supplemented with 10% (v/v) fetal bovine serum, 100 units/mL of penicillin and […] of streptomycin. Flasks of cultured cells were maintained in a humidified incubator (37 °C, 5% CO2) and passaged every 2–3 days to maintain cultures between 20–90% confluence. Cell line identity was verified by comparing […]
(§3) STR profiles of the cell lines against database entries from the DSMZ-German collection of microorganisms and cell cultures, GmBH https://celldive.dsmz.de/str/browse.
(§4) Toxicity to the HT144 and HaCaT cell lines was tested following peptide treatment by measuring the metabolism of resazurin into fluorescent resorufin. The assays were performed with 5000 cells/well (96-well plate) in serum free media. Cells were incubated with serially diluted peptides, PDCs or drugs for 72 h or 24 h (37 °C, 5% CO2). PBS and 0.1% (v/v) Triton X-100 were included as controls for 0% and 100% toxicity. Resazurin was added at 0.02% (w/v) final concentration 2 h prior to the assay end point. Fluorescence (λex = 560 nm, λem = 585 nm) was measured using a Tecan infinite M1000Pro multiplate reader. Percentage cytotoxicity was calculated relative to 0% and 100% controls.
(§5) Dose-response curves were fitted and CC50 values were determined using [inhibitor] vs response with four parameters with the top constrained to 100% (GraphPad Prism version 10.0.2). Data was collected as three biological replicates, with experiments conducted on different days.
(§6) Red blood cell (RBC) lysis
(§7) Human RBCs and serum were obtained from healthy volunteers via the Red Cross Lifeblood, Brisbane, Australia. RBCs were washed three times with PBS and stored in culture medium (RPMI

[3] = as above
Description: as §1, §2, §3, §4, §5, §6, §7

human RBCs = experiment: Red blood cell (RBC) lysis, released hemoglobin; conditions: red cells of human, 72 h
Description: as §1, §6
Human RBCs and serum were obtained from healthy volunteers via the Red Cross Lifeblood,
Brisbane, Australia. RBCs were washed three times with PBS and stored in culture medium (RPMI

CC[C@H](C)[C@@H]1NC(=O)[C@H](CCCCN)NC(=O)[C@H](CCCCN)NC(=O)[C@H](Cc2ccc(O)cc2)NC(=O)[C@H](CC(C)C)NC(=O)[C@@H]2CCCN2C(=O)CNC(=O)CNC(=O)[C@@H](NC(=O)CN)CSSC[C@@H](C(=O)N[C@@H](CCC(=O)O)C(=O)N[C@@H](CO)C(N)=O)NC(=O)[C@H](CC(C)C)NC(=O)[C@H](CCCCN)NC(=O)[C@H](CCCCN)NC(=O)[C@H]([C@@H](C)CC)NC(=O)[C@H]([C@@H](C)CC)NC(=O)[C@H](CCCCN)NC(=O)[C@H](CCCCN)NC(=O)[C@H](Cc2ccc(O)cc2)NC(=O)[C@H](CC(C)C)NC(=O)[C@@H]2CCCN2C(=O)[C@H](C)NC(=O)CNC(=O)CNC(=O)[C@H](CO)NC(=O)CNC(=O)CNC(=O)[C@H](CO)NC(=O)[C@H](CCC(=O)O)NC(=O)[C@H](CC(C)C)NC(=O)[C@H](CC(C)C)NC(=O)[C@H](CCCCN)NC(=O)[C@H](CCCCN)NC(=O)[C@H]([C@@H](C)CC)NC1=O [PDIP, reference compound] (H-GCGGPLYKKIIKKLLESGGSGGAPLYKKIIKKLCES-NH2; disulfide 2-34; N-terminus assumed)
Papp at 4 h, 4 μM [1]: ≥ 2 ×10⁻⁶ cm/s
CC50 [2]: ≥ 32 µM
CC50 [3]: > 32 µM
HC10 (minimal hemolytic concentration) RBC (human RBCs): ~ 32 μM
